Legend:
[1] = Blood level in the rat after one-time intravenous injection; type: in vivo; conditions: one-time i.v. injection, Ultravist 300 mg I/kg, example 4c 200 mg I/kg, especially first 10 minutes, average of three animals, FIG. 1
Description: The blood level in the rat was determined after one-time intravenous injection of 300 mg of I/kg of body weight of Ultravist®[]. and 200 mg of I/kg of body weight of the compound of example 4c [.diamond.]. The data represent the average value from three animals each.

[2] = Elimination from and retention in the body of the rat; type: in vivo

Row | Molecule | blood concentration over time, standardized to the administered dose [1] | route of elimination [2] | elimination from the body ([2]; dose 100 mg of I/kg) | retention in the organs liver, kidney and spleen as well as in the remainder of the body ([2]; dose 100 mg of I/kg, 14 days after administration)
1 | COCC(=O)Nc1c(I)c(C(=O)NCC(O)CO)c(I)c(C(=O)N(C)CC(O)CO)c1I (centres unmarked) [Ultravist, reference compound] | very much more quickly | – | – | –
2 | Octatetracontakis-{3-sodium carboxylatoformylamino-5-(2,3-dihydroxypropylcarbamoyl)-2,4,6-triiodobenzoyl} derivative of the lysine-alanine copolymer (K5)8 K4 K2 K-A--OH [Example 4] | remains very much longer in the blood space | mainly through the kidney | complete elimination | 0.36 % of the dose
